In this assay the test system is SZ95 sebocytes. Briefly: Sentinel Lipid Assay (SLA), desaturation index in SZ95 sebocytes. Type of assay: cell-based. The conditions noted are these: Homo sapiens, 72 h; for EC50: read-out: SLA EC50. On the procedure:
Sentinel Lipid Assay (SLA)
The sentinel lipid assay was used quantify the change in the global desaturation index in SZ95 sebocytes upon administration of certain LXR agonist compounds provided herein. The assay measures a smaller subset of lipid analytes in meibum (termed “sentinel lipids”) which would model the global changes the population of both saturated and desaturated lipids in the cells. In order to define this smaller subset of lipids, a complete lipid profile was recorded on dose response curves (eight levels from 4 nM to 10 uM) of Compounds 1-72. An elastic net regression model was applied separately to both the saturated and desaturated lipids to determine the minimum combination of coefficients and analytes, which could be used to adequately model the total population of lipids. The elastic net model was able to reduce the behavior of 425 lipids to 11 lipids and the correlation between the desaturation indices observed using the complete set of lipids with from the 11 sentinel lipids was 0.96.
A medium throughput assay was created using this reduced set of sentinel lipids. A single batch is defined as triplicate examples of three unique plates (i.e., a single batch of cells is used to create nine plates for LC-MSMS analysis). Lipids were extracted from the cells using a 1:1 mixture of methylene chloride/methanol containing 10 nM of deuterated standards of triglycerides, which are used as internal standards for quantitating the lipid abundance. The lipids were separated prior to mass spectrometric analysis using a five minute HPLC gradient. The abundance of the sentinel lipids and the internal standards are measured using multiple reaction monitor mode (MRM) on a triple quadrupole mass spectrometer. The data was transformed from total ion current to nmoles/10^6 cells, which are multiplied by the coefficients from the elastic net model to determine the effective desaturated and saturated content, and therein the desaturation index of the dosed cells. In order to compare compounds from multiple batches with one another, the measure raw desaturation index was normalized by dividing it by the desaturation index of the DMSO dosed cells, and all data was assessed as the fraction by which the compound increases the desaturation index above 1.
SZ95 (immortalized human sebaceous gland cells) cells were seeded in Greiner bio-one 96-well polypropylene plates that were pre-treated with 50 μg/mL Human Plasma Fibronectin (Thermo Fisher Scientific) at a density of 10^4 cells/135 μl. Cells were incubated in a humidified incubator with 5% CO2 at 37° C. overnight. Test compounds were diluted at a ratio of 1:3 and added to cells at final concentrations starting from 10 μM. 2-(3-(3-((2-chloro-3-(trifluoromethyl)benzyl)(2,2-diphenylethyl)amino)propoxy)phenyl)acetic acid was used as a positive control reference compound in each plate. Cells in the assay plate were incubated in a humidified incubator with 5% CO2 at 37° C. for 72 h.
Culture medium was removed from the cells and cells in culture plates were washed with ice cold phosphate buffered saline three times. Plates were heat sealed and stored in a −80° C. freezer prior to Sentinel lipid assay. The Amax value refers to the percent EC50 of the tested compound compared to a reference compound, 2-(3-(3-((2-chloro-3-(trifluoromethyl)benzyl)(2,2-diphenylethyl)amino)propoxy)phenyl)acetic acid.

Where [1] appears, read: normalized Amax based on the reference compound Amax of 100%, read-out: SLA Normalized Amax.
Where [2] appears, read: SZ95 cells, desaturation index, lowest dose used 4.6 nM.
[3] abbreviates: SZ95 cells, compared to reference compound, read-out: SLA Amax.

Like-named read-outs stand apart in the source and are kept apart here.

In the case of `CC1(C)NC(=O)N(Cc2nc(-c3ccc(Oc4ccccc4SC(F)(F)F)c(C(F)(F)F)c3)no2)C1=O` [Compound 70, 5,5-dimethyl-3-((3-(3-(trifluoromethyl)-4-(2-((trifluoromethyl)thio)phenoxy)phenyl)-1,2,4-oxadiazol-5-yl)methyl)imidazolidine-2,4-dione], the Emax runs as follows: under setting [1], 67.4%; under setting [3], 64.7%. In addition, the EC50 under setting [2] turned out to be 99.2 nM.

As to `CC1(C)C(=O)N(Cc2nc(-c3ccc(Oc4ccccc4S(=O)(=O)C4CCOC4)c(C(F)(F)F)c3)no2)C(=O)N1CCC1CCOCC1` (stereo not drawn) [Compound 59, 5,5-dimethyl-1-(2-(tetrahydro-2H-pyran-4-yl)ethyl)-3-((3-(4-(2-((tetrahydrofuran-3-yl)sulfonyl)phenoxy)-3-(trifluoromethyl)phenyl)-1,2,4-oxadiazol-5-yl)methyl)imidazolidine-2,4-dione], the Emax under setting [1] was 140% and the Emax under setting [3] was found to be 135%. Moreover, the EC50 under setting [2] is not above 4.6 nM.

As to `CC(C)CS(=O)(=O)c1ccccc1Oc1ccc(-c2noc(CN3C(=O)N(CCN4CCOCC4)C(C)(CN(C)C)C3=O)n2)cc1C(F)(F)F` (stereo not drawn) [Compound 60, 5-((dimethylamino)methyl)-3-((3-(4-(2-(isobutylsulfonyl)phenoxy)-3-(trifluoromethyl)phenyl)-1,2,4-oxadiazol-5-yl)methyl)-5-methyl-1-(2-morpholinoethyl)imidazolidine-2,4-dione], the EC50 was not above 4.6 nM. Moreover, for the setting “read-out: SLA Amax”, the Emax came to 170%. The Emax (read-out: SLA Normalized Amax) worked out at 177%.

In the case of `CC(C)CS(=O)(=O)c1ccccc1Oc1ccc(-c2noc(CN3C(=O)N(CCC4CCOCC4)C(C)(C)C3=O)n2)cc1C(F)(F)F` [Compound 4, 3-((3-(4-(2-(isobutylsulfonyl)phenoxy)-3-(trifluoromethyl)phenyl)-1,2,4-oxadiazol-5-yl)methyl)-5,5-dimethyl-1-(2-(tetrahydro-2H-pyran-4-yl)ethyl)imidazolidine-2,4-dione], the Emax was found to be 152% under setting [1] and 146% under setting [3]. The EC50 under setting [2] is not above 4.6 nM.

As for `CN1C(=O)N(Cc2nc(-c3ccc(Oc4ccccc4C(F)(F)F)c(C(F)(F)F)c3)no2)C(=O)C1(C)C` [Compound 72, 1,5,5-trimethyl-3-((3-(3-(trifluoromethyl)-4-(2-(trifluoromethyl)phenoxy)phenyl)-1,2,4-oxadiazol-5-yl)methyl)imidazolidine-2,4-dione], the Emax was found to be 82.8% under setting [1] and 79.5% under setting [3]. The EC50 under setting [2] is 29.8 nM.

For `CC1(C)C(=O)N(Cc2nc(-c3ccc(Oc4ccccc4S(=O)(=O)CCN(CCO)CCO)c(C(F)(F)F)c3)no2)C(=O)N1CCN1CCOCC1` [Compound 62, 3-((3-(4-(2-((2-(bis(2-hydroxyethyl)amino)ethyl)sulfonyl)phenoxy)-3-(trifluoromethyl)phenyl)-1,2,4-oxadiazol-5-yl)methyl)-5,5-dimethyl-1-(2-morpholinoethyl)imidazolidine-2,4-dione], the Emax was determined as 154% under setting [1] and 148% under setting [3]. Under setting [2], the EC50 came to 9.7 nM.

In general, EC50 refers to the midpoint of the concentration-response curve.
